Literature values, collected in patent EP1048712A1, “A process of treating fabrics with a laundry detergent additive tablet” (THE PROCTER & GAMBLE COMPANY, priority 1999, dated 2000).

Conditions: 25°C

Compound	base hydrolysis rates (kOH)
CC(=O)O [acetate]	0.00096 M⁻¹ s⁻¹
oxalate	0.00025 M⁻¹ s⁻¹
N#CS [NCS-]	0.0005 M⁻¹ s⁻¹
O=CO [formate]	0.00058 M⁻¹ s⁻¹
